Literature values as cited in US20260193295A1, “CILAGICIN COMPOUNDS AND METHODS OF USE THEREOF” (priority 2022, published 2026).
Converted amounts (≈) assume the structure as drawn. Like-named read-outs stand apart in the source and are kept apart here.

Test system: vancomycin-resistant Enterococci clinical isolates
Details: cited from earlier work
[1] = Enterococci clinical isolate code 781
[2] = Enterococci clinical isolate code 782
[3] = Enterococci clinical isolate code 783
[4] = Enterococci clinical isolate code 784
[5] = Enterococci clinical isolate code 785
[6] = Enterococci clinical isolate code 786
[7] = Enterococci clinical isolate code 787
[8] = Enterococci clinical isolate code 788
[9] = Enterococci clinical isolate code 789
[10] = Enterococci clinical isolate code 790
[11] = Enterococci clinical isolate code 791
[12] = Enterococci clinical isolate code 792
[13] = Enterococci clinical isolate code 793
[14] = Enterococci clinical isolate code 794
[15] = Enterococci clinical isolate code 795
[16] = Enterococci clinical isolate code 796
[17] = Enterococci clinical isolate code 797
[18] = Enterococci clinical isolate code 798
[19] = Enterococci clinical isolate code 799
[20] = Enterococci clinical isolate code 800
[21] = Enterococci clinical isolate code 801
[22] = Enterococci clinical isolate code 802
[23] = Enterococci clinical isolate code 803
[24] = Enterococci clinical isolate code 804
[25] = Enterococci clinical isolate code 805
[26] = Enterococci clinical isolate code 806
[27] = Enterococci clinical isolate code 807
[28] = Enterococci clinical isolate code 808
[29] = Enterococci clinical isolate code 809
[30] = Enterococci clinical isolate code 810

Molecule: CO[C@H]1/C=C/O[C@@]2(C)Oc3c(C)c(O)c4c(O)c(c(/C=N/N5CCN(C)CC5)c(O)c4c3C2=O)NC(=O)/C(C)=C\C=C\[C@H](C)[C@H](O)[C@@H](C)[C@@H](O)[C@@H](C)[C@H](OC(C)=O)[C@@H]1C [Rifampin]
- MIC [1]: 1 µg/mL (≈ 1.22 µM)
- MIC [2]: 1 µg/mL (≈ 1.22 µM)
- MIC [3]: >4 µg/mL
- MIC [4]: ≤0.25 µg/mL
- MIC [5]: 2 µg/mL (≈ 2.43 µM)
- MIC [6]: 2 µg/mL (≈ 2.43 µM)
- MIC [7]: ≤0.25 µg/mL
- MIC [8]: >4 µg/mL
- MIC [9]: >4 µg/mL
- MIC [10]: >4 µg/mL
- MIC [11]: 1 µg/mL (≈ 1.22 µM)
- MIC [12]: 4 µg/mL (≈ 4.86 µM)
- MIC [13]: 4 µg/mL (≈ 4.86 µM)
- MIC [14]: 4 µg/mL (≈ 4.86 µM)
- MIC [15]: 2 µg/mL (≈ 2.43 µM)
- MIC [16]: >4 µg/mL
- MIC [17]: 4 µg/mL (≈ 4.86 µM)
- MIC [18]: ≤0.25 µg/mL
- MIC [19]: 2 µg/mL (≈ 2.43 µM)
- MIC [20]: 2 µg/mL (≈ 2.43 µM)
- MIC [21]: 0.5 µg/mL (≈ 0.608 µM)
- MIC [22]: ≤0.25 µg/mL
- MIC [23]: >4 µg/mL
- MIC [24]: 2 µg/mL (≈ 2.43 µM)
- MIC [25]: 2 µg/mL (≈ 2.43 µM)
- MIC [26]: >4 µg/mL
- MIC [27]: >4 µg/mL
- MIC [28]: >4 µg/mL
- MIC [29]: 2 µg/mL (≈ 2.43 µM)
- MIC [30]: 2 µg/mL (≈ 2.43 µM)

Molecule: Penicillin
- MIC [1]: 2 µg/mL
- MIC [2]: 2 µg/mL
- MIC [3]: >32 µg/mL
- MIC [4]: 2 µg/mL
- MIC [5]: 4 µg/mL
- MIC [6]: 1 µg/mL
- MIC [7]: 32 µg/mL
- MIC [8]: 1 µg/mL
- MIC [9]: ≤0.12 µg/mL
- MIC [10]: >32 µg/mL
- MIC [11]: 2 µg/mL
- MIC [12]: >32 µg/mL
- MIC [13]: 2 µg/mL
- MIC [14]: >32 µg/mL
- MIC [15]: 4 µg/mL
- MIC [16]: 2 µg/mL
- MIC [17]: 0.5 µg/mL
- MIC [18]: 1 µg/mL
- MIC [19]: 2 µg/mL
- MIC [20]: 2 µg/mL
- MIC [21]: 1 µg/mL
- MIC [22]: >32 µg/mL
- MIC [23]: >32 µg/mL
- MIC [24]: 4 µg/mL
- MIC [25]: 2 µg/mL
- MIC [26]: 8 µg/mL
- MIC [27]: >32 µg/mL
- MIC [28]: 2 µg/mL
- MIC [29]: 1 µg/mL
- MIC [30]: 2 µg/mL

Molecule: CC1(C)S[C@@H]2[C@H](NC(=O)[C@H](N)c3ccccc3)C(=O)N2[C@H]1C(=O)O [Ampicillin]
- MIC [1]: 1 µg/mL (≈ 2.86 µM)
- MIC [2]: 1 µg/mL (≈ 2.86 µM)
- MIC [3]: 64 µg/mL (≈ 183 µM)
- MIC [4]: 1 µg/mL (≈ 2.86 µM)
- MIC [5]: 2 µg/mL (≈ 5.72 µM)
- MIC [6]: 0.5 µg/mL (≈ 1.43 µM)
- MIC [7]: 8 µg/mL (≈ 22.9 µM)
- MIC [8]: 1 µg/mL (≈ 2.86 µM)
- MIC [9]: 0.12 µg/mL (≈ 0.343 µM)
- MIC [10]: 64 µg/mL (≈ 183 µM)
- MIC [11]: 1 µg/mL (≈ 2.86 µM)
- MIC [12]: 64 µg/mL (≈ 183 µM)
- MIC [13]: 1 µg/mL (≈ 2.86 µM)
- MIC [14]: 64 µg/mL (≈ 183 µM)
- MIC [15]: 2 µg/mL (≈ 5.72 µM)
- MIC [16]: 2 µg/mL (≈ 5.72 µM)
- MIC [17]: 1 µg/mL (≈ 2.86 µM)
- MIC [18]: 1 µg/mL (≈ 2.86 µM)
- MIC [19]: 1 µg/mL (≈ 2.86 µM)
- MIC [20]: 1 µg/mL (≈ 2.86 µM)
- MIC [21]: 1 µg/mL (≈ 2.86 µM)
- MIC [22]: 64 µg/mL (≈ 183 µM)
- MIC [23]: 128 µg/mL (≈ 366 µM)
- MIC [24]: 1 µg/mL (≈ 2.86 µM)
- MIC [25]: 1 µg/mL (≈ 2.86 µM)
- MIC [26]: 4 µg/mL (≈ 11.4 µM)
- MIC [27]: 32 µg/mL (≈ 91.6 µM)
- MIC [28]: 2 µg/mL (≈ 5.72 µM)
- MIC [29]: 0.5 µg/mL (≈ 1.43 µM)
- MIC [30]: 1 µg/mL (≈ 2.86 µM)

Molecule: CCCCCCCCCC(=O)N[C@@H](Cc1c[nH]c2ccccc12)C(=O)N[C@H](CC(N)=O)C(=O)N[C@@H](CC(=O)O)C(=O)N[C@@H]1C(=O)NCC(=O)N[C@@H](CCCN)C(=O)N[C@@H](CC(=O)O)C(=O)N[C@H](C)C(=O)N[C@@H](CC(=O)O)C(=O)NCC(=O)N[C@H](CO)C(=O)N[C@@H]([C@H](C)CC(=O)O)C(=O)N[C@@H](CC(=O)c2ccccc2N)C(=O)O[C@@H]1C [Daptomycin]
- MIC [1]: 4 µg/mL (≈ 2.47 µM)
- MIC [2]: 2 µg/mL (≈ 1.23 µM)
- MIC [3]: 4 µg/mL (≈ 2.47 µM)
- MIC [4]: 4 µg/mL (≈ 2.47 µM)
- MIC [5]: 2 µg/mL (≈ 1.23 µM)
- MIC [6]: 0.5 µg/mL (≈ 0.309 µM)
- MIC [7]: 8 µg/mL (≈ 4.94 µM)
- MIC [8]: 1 µg/mL (≈ 0.617 µM)
- MIC [9]: 8 µg/mL (≈ 4.94 µM)
- MIC [10]: 4 µg/mL (≈ 2.47 µM)
- MIC [11]: 1 µg/mL (≈ 0.617 µM)
- MIC [12]: 4 µg/mL (≈ 2.47 µM)
- MIC [13]: 4 µg/mL (≈ 2.47 µM)
- MIC [14]: 4 µg/mL (≈ 2.47 µM)
- MIC [15]: 1 µg/mL (≈ 0.617 µM)
- MIC [16]: 2 µg/mL (≈ 1.23 µM)
- MIC [17]: 1 µg/mL (≈ 0.617 µM)
- MIC [18]: 1 µg/mL (≈ 0.617 µM)
- MIC [19]: 2 µg/mL (≈ 1.23 µM)
- MIC [20]: 2 µg/mL (≈ 1.23 µM)
- MIC [21]: 2 µg/mL (≈ 1.23 µM)
- MIC [22]: 4 µg/mL (≈ 2.47 µM)
- MIC [23]: 4 µg/mL (≈ 2.47 µM)
- MIC [24]: 1 µg/mL (≈ 0.617 µM)
- MIC [25]: 2 µg/mL (≈ 1.23 µM)
- MIC [26]: 4 µg/mL (≈ 2.47 µM)
- MIC [27]: 4 µg/mL (≈ 2.47 µM)
- MIC [28]: 4 µg/mL (≈ 2.47 µM)
- MIC [29]: 4 µg/mL (≈ 2.47 µM)
- MIC [30]: 4 µg/mL (≈ 2.47 µM)
